Assays:
[1] = xn = mol fraction of the nth substance listed; settings: 101 kPa, Liquid, Vibrating tube method
[2] = molar heat capacity at constant pressure; xn = mol fraction of the nth substance listed; settings: 101 kPa, Liquid, Small sample (50 mg) DSC
[3] = excess molar enthalpy (molar enthalpy of mixing); xn = mol fraction of the nth substance listed; settings: 303.15 K, 101 kPa, Liquid, Calvet calorimetry

CCn1cc[n+](C)c1.O=S(=O)([O-])C(F)(F)F [1-ethyl-3-methylimidazolium trifluoromethanesulfonate] + CCO
Settings	mass density, [1] [kg/m3]	molar heat capacity at constant pressure, [2] [J/K/mol]
293.15 K, x1 = 0.0523	883.9	125.1
293.15 K, x1 = 0.1	953	138.9
293.15 K, x1 = 0.1959	1059.7	164.1
293.15 K, x1 = 0.2927	1138.5	188.3
293.15 K, x1 = 0.3819	1194.5	209.7
293.15 K, x1 = 0.4917	1248.4	236
293.15 K, x1 = 0.5983	1289.4	261.7
293.15 K, x1 = 0.6899	1318.8	283.9
293.15 K, x1 = 0.7829	1343.7	306.8
293.15 K, x1 = 0.8784	1365.6	330.5
298.15 K, x1 = 0.0523	879.6	126.8
298.15 K, x1 = 0.1	948.7	140.4
298.15 K, x1 = 0.1959	1055.4	165.4
298.15 K, x1 = 0.2927	1134.1	189.5
298.15 K, x1 = 0.3819	1190.2	211
298.15 K, x1 = 0.4917	1244.1	237.4
298.15 K, x1 = 0.5983	1285.1	263.3
298.15 K, x1 = 0.6899	1314.5	285.4
298.15 K, x1 = 0.7829	1339.4	308.5
298.15 K, x1 = 0.8784	1361.4	332.5
303.15 K, x1 = 0.0523	875.3	128.4
303.15 K, x1 = 0.1	944.4	142
303.15 K, x1 = 0.1959	1051.1	166.7
303.15 K, x1 = 0.2927	1129.8	190.7
303.15 K, x1 = 0.3819	1185.9	212.3
303.15 K, x1 = 0.4917	1239.9	238.8
303.15 K, x1 = 0.5983	1280.9	264.9
303.15 K, x1 = 0.6899	1310.3	286.9
303.15 K, x1 = 0.7829	1335.2	310.3
303.15 K, x1 = 0.8784	1357.2	334.5
308.15 K, x1 = 0.0523	871	130.3
308.15 K, x1 = 0.1	940.2	143.8
308.15 K, x1 = 0.1959	1046.8	168.1
308.15 K, x1 = 0.2927	1125.6	192.1
308.15 K, x1 = 0.3819	1181.6	213.8
308.15 K, x1 = 0.4917	1235.6	240.4
308.15 K, x1 = 0.5983	1276.7	266.5
308.15 K, x1 = 0.6899	1306.1	288.5
308.15 K, x1 = 0.7829	1331	312.2
308.15 K, x1 = 0.8784	1353	336.6
313.15 K, x1 = 0.0523	866.7	132.2
313.15 K, x1 = 0.1	935.8	145.5
313.15 K, x1 = 0.1959	1042.5	169.5
313.15 K, x1 = 0.2927	1121.3	193.5
313.15 K, x1 = 0.3819	1177.3	215.2
313.15 K, x1 = 0.4917	1231.4	241.9
313.15 K, x1 = 0.5983	1272.4	268.2
313.15 K, x1 = 0.6899	1301.9	290.1
313.15 K, x1 = 0.7829	1326.8	314.1
313.15 K, x1 = 0.8784	1348.8	338.7
318.15 K, x1 = 0.0523	862.2	134.2
318.15 K, x1 = 0.1	931.4	147.4
318.15 K, x1 = 0.1959	1038.1	171.1
318.15 K, x1 = 0.2927	1116.9	195
318.15 K, x1 = 0.3819	1173	216.9
318.15 K, x1 = 0.4917	1227.1	243.6
318.15 K, x1 = 0.5983	1268.2	270
318.15 K, x1 = 0.6899	1297.7	291.9
318.15 K, x1 = 0.7829	1322.6	316.1
318.15 K, x1 = 0.8784	1344.7	340.9

[3]
Settings	excess molar enthalpy [kcal/mol]
x1 = 0.1271	0.291
x1 = 0.2489	0.411
x1 = 0.3752	0.449
x1 = 0.5006	0.424
x1 = 0.6176	0.363
x1 = 0.7501	0.26
x1 = 0.869	0.143

CCCCCCn1cc[n+](C)c1.F[B-](F)(F)F [1-hexyl-3-methylimidazolium tetrafluoroborate] + CCO
Settings	mass density, [1] [kg/m3]	molar heat capacity at constant pressure, [2] [J/K/mol]
293.15 K, x1 = 0.1052	904.3	152
293.15 K, x1 = 0.2011	969.7	184.5
293.15 K, x1 = 0.2832	1009.1	209.9
293.15 K, x1 = 0.3846	1045.5	240.4
293.15 K, x1 = 0.4943	1075.1	272.3
293.15 K, x1 = 0.5486	1086.6	288
293.15 K, x1 = 0.6882	1111.6	328.8
293.15 K, x1 = 0.7748	1124	–
293.15 K, x1 = 0.7879	–	358.6
293.15 K, x1 = 0.7988	1127.1	–
293.15 K, x1 = 0.8521	1133.6	–
293.15 K, x1 = 0.8791	–	387.1
298.15 K, x1 = 0.1052	900.2	153.6
298.15 K, x1 = 0.2011	965.8	185.9
298.15 K, x1 = 0.2832	1005.2	211.4
298.15 K, x1 = 0.3846	1041.7	241.8
298.15 K, x1 = 0.4943	1071.4	273.8
298.15 K, x1 = 0.5486	1082.9	289.7
298.15 K, x1 = 0.6882	1108	330.9
298.15 K, x1 = 0.7748	1120.5	–
298.15 K, x1 = 0.7879	–	360.8
298.15 K, x1 = 0.7988	1123.6	–
298.15 K, x1 = 0.8521	1130.1	–
298.15 K, x1 = 0.8791	–	389.4
303.15 K, x1 = 0.1052	896.2	155
303.15 K, x1 = 0.2011	961.8	187.3
303.15 K, x1 = 0.2832	1001.4	212.8
303.15 K, x1 = 0.3846	1037.9	243
303.15 K, x1 = 0.4943	1067.7	275.2
303.15 K, x1 = 0.5486	1079.3	291.3
303.15 K, x1 = 0.6882	1104.4	332.9
303.15 K, x1 = 0.7748	1117	–
303.15 K, x1 = 0.7879	–	363
303.15 K, x1 = 0.7988	1120.1	–
303.15 K, x1 = 0.8521	1126.6	–
303.15 K, x1 = 0.8791	–	391.6
308.15 K, x1 = 0.1052	892.1	156.6
308.15 K, x1 = 0.2011	957.9	188.6
308.15 K, x1 = 0.2832	997.6	214.1
308.15 K, x1 = 0.3846	1034.2	244.4
308.15 K, x1 = 0.4943	1064	276.7
308.15 K, x1 = 0.5486	1075.6	293
308.15 K, x1 = 0.6882	1100.9	334.9
308.15 K, x1 = 0.7748	1113.5	–
308.15 K, x1 = 0.7879	–	365
308.15 K, x1 = 0.7988	1116.6	–
308.15 K, x1 = 0.8521	1123.1	–
308.15 K, x1 = 0.8791	–	393.9
313.15 K, x1 = 0.1052	888	158.1
313.15 K, x1 = 0.2011	954	189.9
313.15 K, x1 = 0.2832	993.7	215.4
313.15 K, x1 = 0.3846	1030.4	245.7
313.15 K, x1 = 0.4943	1060.4	278.1
313.15 K, x1 = 0.5486	1072	294.6
313.15 K, x1 = 0.6882	1097.4	336.9
313.15 K, x1 = 0.7748	1110	–
313.15 K, x1 = 0.7879	–	367.1
313.15 K, x1 = 0.7988	1113.1	–
313.15 K, x1 = 0.8521	1119.7	–
313.15 K, x1 = 0.8791	–	396.1
318.15 K, x1 = 0.1052	883.9	159.8
318.15 K, x1 = 0.2011	950	191.2
318.15 K, x1 = 0.2832	989.8	216.7
318.15 K, x1 = 0.3846	1026.7	247.1
318.15 K, x1 = 0.4943	1056.7	279.6
318.15 K, x1 = 0.5486	1068.4	296.2
318.15 K, x1 = 0.6882	1093.8	338.9
318.15 K, x1 = 0.7748	1106.5	–
318.15 K, x1 = 0.7879	–	369
318.15 K, x1 = 0.7988	1109.6	–
318.15 K, x1 = 0.8521	1116.2	–
318.15 K, x1 = 0.8791	–	398.3

[3]
Settings	excess molar enthalpy [kcal/mol]
x1 = 0.101	0.322
x1 = 0.2037	0.489
x1 = 0.3018	0.576
x1 = 0.3977	0.614
x1 = 0.4988	0.592
x1 = 0.6045	0.522
x1 = 0.6901	0.443
x1 = 0.7932	0.314
x1 = 0.8733	0.203

From the NIST ThermoML archive (doi:10.1016/j.fluid.2008.09.004)
